# B1: BMP4: bone morphogenetic protein, BMP pathway activator (protein, UniProt P12644 293-408, looked up)
# Bone morphogenetic protein 4: SPKHHSQRARKKNKNCRRHSLYVDFSDVGWNDWIVAPPGYQAFYCHGDCPFPLADHLNSTNHAIVQTLVNSVNSSIPKACCVPTELSAISMLYLDEYDKVVLKNYQEMVVEGCGCR
# How the values were obtained:
# Type in all cases: cell-based, human
# hiPSCs [1] = test: hiPSC monolayer hematopoietic differentiation (iCD34 platform), CD34+ HE population at D10 by flow cytometry
# Method: The iCD34 platform is an optimized system for hematopoietic lineage cells differentiation. To initiate differentiation towards the hematopoietic lineage, hiPSCs were seeded as a monolayer on Day (D) 0 in the maintenance medium and allowed to adhere and expand for about 24 hours. At this point, the maintenance medium was removed and replaced with base medium without maintenance factors at D1. Hematopoietic differentiation was initiated at around D2 by switching the culture medium to iCD34−A (see FIG. 1). […] The monolayers were maintained until around D5-D6 at which point they were dissociated into single cells and seeded as a low density monolayer in iCD34−C medium until differentiation around D10. Low oxygen tension (2-10% O2) was maintained from the onset of hematopoietic differentiation around D2 up until around D10 of differentiation.
# During the culture process, the directed differentiation towards the hematopoietic lineage was monitored by the dissociation of the monolayers into single cells and analysis for the surface marker expression of CD34, and optionally, CD43, CD45, CXCR4, CD73 and/or CD93 (FIG. 4A). At around D8 of differentiation, the appearance of a cell population representing HE was observed by the cell surface expression signature CD34+. CD43−CXCR4−CD73− was also observed in the CD34+ cells. The CD34+ population was maintained until around D10 (FIG. 4A). At D10, which time point can be shortened to about D9 or extended until about D12, the cells were dissociated into single cells and the CD34+ HE population was sorted by FACS using a BD FACS Aria for further analysis and functional assessment.
# To optimize the efficient generation of HE from hiPSCs after around 10 days of differentiation several parameters were examined. The optimal plating density of the monolayers at D0 of differentiation was assessed by plating increasing numbers of hiPSCs from 7.5×10^4/well to 1.5×10^5/well on Matrigel™-coated 6 well culture dishes and then analyzing the generation of the CD34+ HE population at about D10. […] Despite this decrease, the highest conversion rate of hiPSCs to HE after 10 days of monolayer differentiation was at the highest plating density tested at 1.5×10^5/well (FIG. 4C).
# The effect of the concentration of BMP4 modulation during the initial stages of hematopoietic differentiation on the generation of HE was assessed by treating the cultures with increasing concentrations of BMP4 ranging from 0 ng/ml to 30 ng/ml from about D2 to about D6 of differentiation. The generation of HE at D10 was assessed by the detection of the CD34+ HE population.
# The Wnt pathway activator CHIR99021 is responsible for the induction of the definitive hematopoietic program from hiPSCs. The effect of the modulation of CHIR during the induction phase of the hematopoietic differentiation protocol was assessed by treating the cultures with increasing concentrations of CHIR from about D3.75 to about D6.
# hiPSCs [2] = test: WNT signaling modulation from day 6 of differentiation, CD34+CD43-CD93- HE analyzed at Day 10
# Method: To optimize the efficient generation of definitive HE from hiPSCs after 10 days of directed differentiation, the effect of modulation of the WNT signaling pathway was examined. At day 6 of differentiation, cell cultures were differentiated in the presence of the GSK3 inhibitor CHIR99021, a Wnt agonist, or IWP2, a WNT inhibitor (FIG. 29A). The generation of CD34+CD43−CD93− HE was analyzed at Day 10.
# Day 10 CD34+CD43- cells [3] = test: MPP differentiation of WNT modulated HE
# Method: Approximately 30,000 CD34+ HE cells were plated as a monolayer in iMPP-A media and further cultured for 6-8 days. FIG. 6A illustrates the phenotypic alterations in the monolayer cultures with the emergence of round hematopoietic cells and flow cytometric staining identifies the presence of CD45+ over the 6-8 day culture period.
# (§1) To determine the potency of the WNT modulated HE, the pan-hematopoietic and lymphoid potential of the untreated, IWP2- and CHIR99021-treated HE was each assessed. Day 10 CD34+CD43− cells were isolated by FACS and plated in MPP differentiation and iNK differentiation cultures as provided herein.
# Day 10 CD34+CD43- cells [4] = test: iNK differentiation of WNT modulated HE
# Method: Specific to NK cells, upon sorting, the HE cells were cultured on low attachment tissue culture plates in iNK-A2 serum-free differentiation media containing SCF, TPO, Flt3L, IL3, IL15, and IL7 (FIG. 3). After 5 days, the cells were transferred to adherent cultures containing DLL4-expressing stromal cells in iNK-B2 differentiation media containing SCF, IL3, IL15, Flt3L and IL7 to complete NK cell differentiation. After approximately 10-15 days of culturing (post HE isolation) the cell culture was assessed for the generation of NK cell progenitors followed by mature NK subsets following an additional 10-15 days of culturing. CD56 and CD161 (NKR-P1A) are the first cell surface markers to be expressed during early NK cell development followed by the expression of CD16, KIR, CD8 and NKG2D (CD314) on later mature NK cell subsets. FIG. 11 depicts the in vitro differentiation capability of the Day 10 HE population to give rise to early NK cell progenitors and mature NK cell subsets by analysis of a CD45+ population generated in the co-cultures.
# as §1
# [5] = tested on: umbilical cord blood CD34+ cells; test: Stromal-free NK differentiation on plate-bound DLL4 protein, cord blood cells; conditions: versus stromal-based and stromal-free control cultures
# Method: Specific to NK cells, enriched umbilical cord blood CD34+ cells were plated in iNK-A2 serum-free differentiation media containing SCF, Flt3L, TPO, IL3, IL15 and IL7 in culture plates containing DLL4 protein or control protein. After 5 days the iNK-B2 medium was maintained to complete NK cell differentiation. After approximately 10-15 days of culture, the culture was assessed for the generation of NK cell progenitors and the absence of myeloid cells. CD56, CD7 and CD161 are the first cell surface markers to be expressed during NK cell development. CD11b and CD14 are cell surface markers expressed on myeloid cell subsets. FIG. 18 depicts stromal-free differentiation of umbilical cord blood CD34+ cells towards NK cells. […] Early NK lineage markers identify the presence of ipro-NK cells as defined by CD56, CD7 and CD161 and the absence of myeloid markers CD11b and CD14.
# [6] = tested on: Day 10 CD34+ iHE sorted cells; test: Stromal-free NK differentiation on plate-bound DLL4 protein, hiPSC-derived cells
# Source text: Then the hiPSC-derived CD34+ cells were differentiated towards the NK cell lineage for 20 days and then placed in suspension culture for further maturation. […] After 5 days iNK-B2 media was maintained to complete NK cell differentiation. Markers for identifying the presence of mature NK cells include CD56, CD122, NKp30, CD94, CD16, NKG2D and KIR.
# [7] = CHIR from about D3.75 to about D6
molecule,measurement,setting,value
Cc1c[nH]c(-c2cnc(NCCNc3ccc(C#N)cn3)nc2-c2ccc(Cl)cc2Cl)n1 [CHIR99021],effect of increasing concentration on percentage of the HE subpopulation,hiPSCs [1]; [7],decreases the percentage of the HE subpopulation
same,effect of increasing concentration on total percentage of CD34+ cells,hiPSCs [1]; [7],increases the total percentage of CD34+ cells
same,optimal concentration of CHIR99021 for HE subpopulation,hiPSCs [1]; [7],approximately 1 uM
same,number and percentage of phenotypic CD34+CD43-CD93- HE (FIG. 29B legend),hiPSCs [2],increased the number and the percentage
same,"HE cellularity (total HE cell number, HE proliferation)",hiPSCs [2]; treated from day 6,improved HE cellularity
same,percentage of CD34+CD43- cells at Day 10,hiPSCs [2]; treated from day 6,slight decrease
same,increase in number and percentage of phenotypic CD34+CD43-CD93- HE,"hiPSCs [2]; treated from day 6, Day 10",2-3 fold
same,production of CD45+ cells from the modulated HE (FIG. 30A legend),Day 10 CD34+CD43- cells [3],increased the production of CD45+ cells
same,increased presence of CD45+ cells (hematopoietic potency),Day 10 CD34+CD43- cells [3]; after 7 days of MPP differentiation,5-6 fold
same,production of NK progenitor cells from the modulated HE (FIG. 30B legend),Day 10 CD34+CD43- cells [4],increased the production of NK progenitor cells
same,increased presence of CD56+CD7+ NK progenitor cells (lymphoid capacity),Day 10 CD34+CD43- cells [4]; after 20 days of iNK differentiation,5-6 fold
Cc1ccc2nc(NC(=O)CSc3nc4c(c(=O)n3-c3ccccc3)SCC4)sc2c1 [IWP2],HE cell numbers at Day 10,hiPSCs [2]; treated from day 6,overall decrease in HE cell numbers
same,percentage of phenotypic HE at Day 10,hiPSCs [2]; treated from day 6,did not affect the percentage of phenotypic HE
"DLL4: plate-bound DLL4 protein, Notch activator",differentiation of CD56+CD7+CD161+ NK cell progenitors,[5],supports a more rapid and efficient differentiation
same,differentiation of NK cell progenitors versus myeloid cells,[6],supports the differentiation of CD56+CD7+CD161+ NK cell progenitors but not CD11b+ myeloid cells
B1,optimal concentration of BMP4 for HE population at D10,hiPSCs [1]; BMP4 0 ng/ml to 30 ng/ml from about D2 to about D6,about 3 ng/mL
same,effect of increasing BMP4 concentration on HE population at D10,"hiPSCs [1]; BMP4 from D2 to D6, below a threshold concentration",increases the HE population at D10

# Reference: patent publication US10858628B2, “Methods and compositions for inducing hematopoietic cell differentiation” (Fate Therapeutics, Inc., priority 2015, dated 2020)
